# Assays:
# [1] = tested on: IL-17A mRNA; assay: Real-time fluorescence quantitative PCR, LPS-induced IL-17A mRNA in RAW264.7 cells; type: cell-based, mouse
# Procedure: (§1) RAW264.7 cell culture: mouse mononuclear macrophages (RAW264.7, ATCC) are cultured in a complete medium containing 10% fetal bovine serum (FBS), 1% double antibodies (penicillin and streptomycin), and 89% DMEM at 37° C. and 5% CO2. In this experiment, RAW264.7 cells from passages 3 to 8 are used for related test.
# (§2) LPS (100 ng/ml) is added for stimulation, with or without Tan, and the cell supernatant is collected to detect the contents of NO, IL-23, IL-17A, TNF-α, and IL-6 in the cell supernatant. The cell lysate is collected and the protein expressions (STAT3, p-STAT3 (Ser727), and p-STAT3 (Tyr705)) are detected by Western blot. Total cell RNA is extracted and real-time fluorescence quantitative polymerase chain reaction (PCR) is conducted to detect the expression levels of IL-23, IL-17A, TNF-α, and IL-6 mRNA.
# RAW264.7 cells were inoculated into 6-well plate and the cell density was adjusted to 5.0×10^6 cells/well. After cultured for 24 h, the cells were stably adhered to the wall. The original medium was removed and different concentrations (5, 10, 20, 40 μM) of Tan were added to allow pretreatment for 1 h. LPS (100 ng/mL) was added and continued to be incubated for 24 h. The commercial TRlcom lysis buffer provided by Jianshi Biotech was added to extract total RNA from cells using the centrifugal column method and immediately reverse transcribed into c-DNA. The fluorescence intensity of each sample was detected according to the instructions of the real-time fluorescence quantitative PCR kit and specific primers (Table 1) (cycle conditions: enzyme activation 95° C. for 3 min, 1 cycle; denaturation 95° C. for 15 s, annealing/extension 60° C. for 1 min, 40 cycles). The mRNA expression level of each group was normalized with the GAPDH expression level, and the relative expression of mRNA was calculated using the 2^−ΔΔCt method.
# [2] = tested on: p-STAT3 (Ser 727); assay: Western blot of p-STAT3 (Ser 727) in LPS-induced RAW264.7 cells; type: cell-based, mouse
# Procedure: as §1, §2
# RAW264.7 cells in the logarithmic growth phase were inoculated in 100 mm culture dishes, and the cell density was adjusted to 1.6×10^6 cells/dish. After cultured for 24 h, different concentrations (5, 10, 20, 40 μM) of Tan were added to allow pretreatment for 2 h, and LPS (100 ng/ml) was added to allow incubation for 24 h. The original medium was removed, and the cells were washed 2 times with pre-cooled PBS buffer. Then, protein lysis buffer (300 μL per dish) was added for lysis on ice for 30 min. The supernatant was collected by centrifugation at 4° C., 12,000 rpm for 5 min, and the protein concentration was determined by BCA method. Next, 60 μg of total protein sample was loaded, separated by 10% Sodium Dodecyl Sulfate Polyacrylamide Gel Electrophoresis (SDS-PAGE) gel, and transferred to Polyvinylidene Fluoride (PVDF) membrane by electrophoresis. The membrane was blocked with 5% skim milk at room temperature for 1 h, and 3 mL of GAPDH, STAT3, p-STAT3 (Ser727), and p-STAT3 (Tyr705) antibodies were added and incubated overnight at 4°° C. […] Enhanced Chemiluminescence (ECL) color development was used for detection, and protein band quantification was performed using Image J software.
# [3] = tested on: p-STAT3; assay: Immunohistochemistry of p-STAT3 in dorsal skin of IMQ-induced psoriasis mice; type: in vivo, Balb/c mice; settings: preventive and therapeutic administration groups; dose-dependent
# Procedure: (§3) Balb/c mice (female, 6-8 weeks, 20+2 g), with certificate number [SCXK (Xiang) 2021-0002], were purchased from Hunan SJA Laboratory Animal (Changsha, China). All mice were housed in an specific pathogen free (SPF)-grade animal room with a 12 h light/12 h dark cycle, and experiments were started after the mice were acclimated for one week. Next, 96 mice were randomly divided into 12 groups (8 mice/group), including Control group, Control solvent (white vaseline) group, IMQ group, IMQ solvent (white vaseline) group, preventive administration of positive medicament Clo group (IMQ+Clo 55 mg), therapeutic administration of positive medicament group (IMQ+Clo (A) 55 mg), preventive administration of Tan low-dose group (IMQ+Tan 40 μg/cm^2), medium-dose group (IMQ+Tan160 μg/cm^2), and high-dose group (IMQ+Tan 640 μg/cm^2), and therapeutic administration of Tan low-dose group (IMQ+Tan (A) 40 μg/cm^2), medium-dose group (IMQ+Tan (A) 160 μg/cm^2), and high-dose group (IMQ+Tan (A) 640 μg/cm^2). After the mice were anesthetized, a 2 cm×3 cm area on the back was selected for hair removal. Modeling began 48 h after hair removal, and all modeling mice were applied with 65 mg (55 mg on the back and 5 mg on each ear) of IMQ cream every morning for 10 d. […]
# [4] = tested on: IL-17A; assay: Immunohistochemistry of IL-17A in dorsal skin of IMQ-induced psoriasis mice; type: in vivo, Balb/c mice; settings: preventive and therapeutic administration groups; dose-dependent
# Procedure: as §3
smiles,measurement,setting,value
"COc1ccc(-c2cc(=O)c3c(OC)c(OC)c(OC)c(OC)c3o2)cc1 [Tan, tangeretin]",inhibitory effect on IL-17A (FIG. 5B),[1],strong inhibitory effect
same,inhibitory effect on IL-17A mRNA compared with positive control Clo,[1]; 40 μM,comparable to that of the positive control Clo
same,relative expression level of IL-17A mRNA,"[1]; 5-40 μM, 24 h, vs LPS, P<0.001, dose-dependent",significantly decreased
same,suppression of p-STAT3 (Ser 727) relative to p-STAT3 (Tyr 705),[2],more pronounced suppression
same,suppression of STAT3 phosphorylation (Ser 727) compared with positive control Clo,[2]; 40 μM,comparable efficacy to the positive control
same,expression of p-STAT3 (Ser 727) protein,"[2]; 5-40 μM, vs LPS group, P<0.001, dose-dependent",inhibited
same,expression level of p-STAT3 in the dorsal skin,[3],significantly reduced
same,expression level of IL-17A in the dorsal skin,[4],significantly reduced

# From patent publication US20250255845A1, “USE OF INTERLEUKIN (IL)-17A INHIBITOR IN PREPARATION OF MEDICAMENT FOR TREATING INFLAMMATORY DISEASE” (Xiangnan University, priority 2024, published 2025)
